Key:
K562 cells = assay: RT-qPCR quantification of gene expression in K562 cells; type: cell-based, human; conditions: 200 nM, CPI-0610 reapplied daily, PLX51107 once at day 0
Description: (§1) K562, HEL, and HL-60 cells were cultured in RPMI 1640 medium supplemented with 10% FBS. TF-1 cells were cultured in RPMI 1640 medium supplemented with 10% FBS and 4 ng/mL GM-CSF. Before treatment, TF-1 cells were washed 4× with RPMI 1640 without supplements, and cultured in RPMI 1640 medium with 10% FBS but no GM-CSF for 24 hours. 4 ng/mL GM-CSF or 3 units/mL EPO were added at the time of treatment set up. K562, HEL, and HL-60 cells were cultured as normal until treatment set up. JQ1 (Sigma-Aldrich, SML1524), CPI-0610 (Selleck Chemicals, S7853), and PLX51107 (MedChemExpress, HY-111422) were dissolved in DMSO to 10 mM concentration and stored in −80° C. All three inhibitors were applied to cells at 200 nM, with parallel DMSO treatment (0.002%) as control. JQ1 and PLX51107 were added to cell culture at day 0 without additional treatments up to day 5. CPI-0610 was reapplied to the cells on a daily basis.
(§2) cDNA libraries for mRNAs were made from 1 μg input RNA using High-Capacity cDNA Reverse Transcription Kit (ThermoFisher, 4368814). Gene expressions were quantified using Power SYBR Green PCR Master Mix (Thermofisher, 4367659). For microRNAs, cDNA libraries were made with Taqman Advanced miRNA cDNA Synthesis Kit (Thermofisher, A28007). miR-15A and miR-16-1 were quantified using the Taqman Advanced miRNA Assays (ThermoFisher, A25576) specific to hsa-miR-15a-5p (assay ID: 477858_mir) and hsa-miR-16-5p (assay ID: 477860_mir).

[1] = Lifespan in culture medium; type: physicochemical
TF-1 cells = assay: RT-qPCR quantification of gene expression in TF-1 cells; type: cell-based, human; conditions: 200 nM; for HBB, HBG1/2 and HBE1 expression compared with JQ1: TF-1 cells, CPI-0610 reapplied daily, PLX51107 once at day 0
Description: as §1, §2

BET proteins = conditions: cited from earlier work; for Bromodomain preference (BD1 vs BD2): BET proteins; for Affinity among BET family members: BRD2/BRD3/BRD4/BRDT, literature refs 17, 18

Compound | HBB, HBG1/2 and HBE1 expression compared with JQ1 (K562 cells) | Lifespan in culture medium [1] | HBB, HBG1/2 and HBE1 expression compared with JQ1 (TF-1 cells) | Bromodomain preference (BD1 vs BD2) (BET proteins) | Affinity among BET family members (BET proteins) | HBB expression (TF-1 cells; TF-1 cells under proliferative condition)
Cc1noc2c1-c1ccccc1C(c1ccc(Cl)cc1)=N[C@H]2CC(N)=O [CPI-0610] | mimic the effects of JQ1 | short lifespan | mimic the effects of JQ1 | preference for the second bromodomain (BD2) | comparable affinity | –
Cc1noc(C)c1-c1cnc2c(-c3ccc(C(=O)O)cc3)cn([C@@H](C)c3ccccn3)c2c1 [PLX51107] | mimic the effects of JQ1 | – | mimic the effects of JQ1 | preferentially binds to BD1 | somewhat lower affinity for BRDT | significantly suppressed

From US20220347186A1, “METHODS AND COMPOSITIONS FOR TREATING SICKLE CELL DISEASE AND THALASSEMIA” (THE UNIVERSITY OF CHICAGO, priority 2019, published 2022)
